This is an account of results in patent US20230339915A1 (Vertex Pharmaceuticals Incorporated, priority 2020, published 2023).

Experiment [1] addresses NL20 human bronchial epithelial cells expressing human Z-AAT (Homo sapiens (Human), UniProt P01009, E366K). Briefly: AAT Function Assay (MSD Assay NL20-SI Cell Line). The note with it: functionally active AAT (AAT-hNE complex, MSD) in supernatant of NL20 cells expressing human Z-AAT; read-out: NL20 Functional EC50. It counts as cell-based. On the procedure:
A. AAT Function Assay (MSD Assay NL20-SI Cell Line)
Alpha-1 antitrypsin (AAT) is a SERpIN (serine protease inhibitor) that inactivates enzymes by binding to them covalently. This assay measured the amount of functionally active AAT in a sample in the presence of the disclosed Compounds 1-227 by determining the ability of AAT to form an irreversible complex with human neutrophil Elastase (hNE). In practice, the sample (cell supernatant, blood sample, or other) was incubated with excess hNE to allow AAT-Elastase complex to be formed with all functional AAT in the sample. This complex was then captured to a microplate coated with an anti-AAT antibody. The complex captured to the plate was detected with a labeled anti-Elastase antibody and quantitated using a set of AAT standards spanning the concentration range present in the sample. Meso Scale Discovery (MSD) plate reader, Sulfo-tag labeling, and microplates were used to provide high sensitivity and wide dynamic range.
Instrument(S): • Meso Sector S600 • Bravo • Washer dispenser • Multidrop Combi
Day 1 Cell Culture • 1. Harvest NL20 human bronchial epithelial cells expressing human Z-AAT in OptiMEM™ containing Pen/Strep (P/S) • 2. Seed at 16,000 cells/well in 30 μL (384 well plate) • 3. Centrifuge plates briefly up to speed (1200 rpm) and place into 37° C. incubator overnight
Day 2: Compound Addition and Coating Plates with Capture Antibody
Compound Addition: • 1. Dispense 40 μL of OptiMEM™ (P/S) with doxycycline (1:1000 stock=0.1 μM final) to each well of the compound plate using a multidrop Combi in hood • 2. Remove cell plate from incubator, flip/blot and take immediately to Bravo to transfer compounds • 3. Return plates to incubator overnight
Coat MSD Plates • 1. Dilute capture antibody (Polyclonal Goat anti-AAT) to 5 μg/mL (1:200) in PBS (no BSA). • 2. Dispense 25 μL of diluted capture antibody into all wells of MSD 384-well High Bind plate using the Multidrop equipped with a standard cassette. • 3. Incubate overnight at 4° C.
Prepare Blocker A (BSA) Solutions • 1. Prepare solution of 5% MSD Blocker A (BSA) following the manufacturer's instructions. • 2. Further dilute the 5% MSD Blocker A in PBS to 1% (Blocker A) as needed.
Block Plates • 1. Wash plate 1× with 50 μL Wash buffer (PBS+0.5% Tween 20), and adds 35 μL 5% Block A buffer to block non-specific binding on washer dispenser • 2. Rotate plates on shaker for 1 hour at 600 rpm
Prepare M-AA T Standards • 1. Dilute M-AAT stock to 1.6 μg/mL in 1% BSA Blocker A (Stock in −70° C.); then prepare 12×1:2 serial dilutions in 1% Blocker A • 2. The top starting final concentration on MSD plate is 320 ng/mL. These dilutions correspond to a final concentration of 320, 160, 80, 40, 20, 10, 5, 2.5, 1.25, 0.625, 0.312, 0.156 ng/mL.
Dilution Plate • 1. Add 80 μL of 1% Assay buffer to all wells except columns 1/24 (standards) with Multidrop Combi • 2. Add diluted standards to columns 1 and 24 • 3. Centrifuge dilution plates 1200 rpm briefly
Cell Plate • 1. Aspirate columns which will have the standards from the cell plates in the hood using 16-pin aspirator
Prepare Human Neutrophil Elastase (hNE) • 1. Prepare 1 μg/mL Human Neutrophil Elastase by diluting in 1% Blocker A. • a. Small 100 μg vial—add 1 mL PBS (100 μg/mL) • i. This can then be diluted 1:100 in 1% Assay Buffer for a final 1 μg/mL concentration
MSD—add hNE (20 μL/well) • 1. After the MSD plate has blocked for at least 1 hour, wash plate 1× with 50 μL Wash buffer (PBS+0.5% Tween 20) and then add 20 μL hNE to each well
Bravo—Cell Plate—Dilution Plate—MSD Plate
Using the Bravo aspirate 10 μL from the cell plate, transfer to the dilution plate (9-fold dilution) • 1. Mix 25 μL 3×, then aspirate 5 μL, transfer to MSD plate (5-fold dilution) • 2. Mix 10 μL 3×. Total dilution is 45 fold. • 3. Shake plates at 600 rpm for 1.5 hours
Add Functional Detection hNE Antibody • 1. Wash plate 1× with wash buffer • 2. […]

The target of experiment [2] is purified Z-AAT protein from human plasma (Homo sapiens (Human), UniProt P01009, E366K). Briefly: Biochemical Assay (Z-AAT Elastase Activity Assay). The note with it: purified Z-AAT pre-incubated with compound 1 hour, then human neutrophil elastase and fluorescent substrate. From the text:
B. Biochemical Assay (Z-AAT Elastase Activity Assay)
This assay measured the modulation of Compounds 1-227 on Z-AAT SERpIN activity using purified Z-AAT protein and purified human neutrophil elastase (hNE). Normally, when active monomeric Z-AAT encounters a protease such as trypsin or elastase, it forms a 1:1 covalent “suicide” complex in which both the AAT and protease are irreversibly inactivated. However, compounds binding to Z-AAT can lead to a decrease in SERpIN activity. In such cases, when a protease encounters compound-bound Z-AAT, the protease cleaves and inactivates Z-AAT without itself being inactivated.
Reagents • PBS buffer (media prep)+0.01% BRIJ35 detergent (Calbiochem catalog #203728) Opti-MEM media (Fisher 11058-021) • Human neutrophil elastase (hNE, Athens Research #16-14-051200) • 3.4 μM stock (0.1 mg/mL) prepared in 50 mM Na Acetate, pH 5.5, 150 mM NaCl, stored at −80° C. • Elastase substrate V (ES V, fluorescent peptide substrate MeOSuc-Ala-Ala-Pro-Val-AMC, Calbiochem catalog #324740) • 20 mM stock in DMSO, stored at −20° C. • Purified Z-AAT protein from human plasma; • 12.9 μM (0.67 mg/mL) Z-AAT Vertex Cambridge Sample 4942, from patient • #061-SSN, stored at −80 C
Plates • Corning 4511 (384 well black low volume)
Instruments • PerkinElmer® EnVision™
Pre-Incubation of Z-AAT with Compounds • 1. 7.5 μL of Z-AAT (20 nM) was incubated with compounds 1-227 in a GCA plate for 1 hour at room temperature
Addition of hNE • 1. 7.5 ul of HNE solution (3 nM in PBS+0.01% BRIJ35) added into GCA plate • 2. Incubate plate for 30 minutes to allow Z-AAT/HNE suicide complex formation.
Addition of Substrate and Read Plate on PE Envision • 1. 7.5 μL of substrate (300 μM solution of elastase substrate (ES V) in PBS+0.01% BRIJ35) dispensed per well into GCA plate • 2. Immediately read on Envision.

Chain of purified Z-AAT protein from human plasma (P01009 25-418 E366K limits assumed): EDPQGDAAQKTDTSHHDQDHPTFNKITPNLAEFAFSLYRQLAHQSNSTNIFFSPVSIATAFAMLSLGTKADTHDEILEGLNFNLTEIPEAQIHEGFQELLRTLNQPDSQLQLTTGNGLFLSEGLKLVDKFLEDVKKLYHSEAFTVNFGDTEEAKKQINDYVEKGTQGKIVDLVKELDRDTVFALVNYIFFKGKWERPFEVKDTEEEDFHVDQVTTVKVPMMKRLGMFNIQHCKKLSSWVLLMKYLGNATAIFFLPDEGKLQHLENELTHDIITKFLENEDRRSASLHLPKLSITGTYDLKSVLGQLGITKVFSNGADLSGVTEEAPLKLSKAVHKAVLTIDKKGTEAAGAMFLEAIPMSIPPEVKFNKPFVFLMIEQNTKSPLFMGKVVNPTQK
Chain of NL20 human bronchial epithelial cells expressing human Z-AAT (P01009 25-418 E366K limits assumed): as above

Regarding `Cc1cc(-n2c(C3CCOCC3)c(C[C@H]3CC[C@H](C(=O)O)CC3)c3cc(O)ccc32)ccc1F` [Compound 5], the EC50 in experiment [1] was greater than 2000 nM. The IC50 in experiment [2] was greater than 30000 nM.
On the same counts, the results for `Cc1cc(-n2c(C(C)C)c(C3CC(C(=O)O)C3)c3cc(O)ccc32)ccc1F` (stereo not shown) [Compound 6] are greater than 2000 nM and greater than 30000 nM.
With `Cc1cc(-n2c(C3CCOCC3)c(C[C@H]3C[C@H](C(=O)O)C3)c3cc(O)ccc32)ccc1F` [Compound 7], the EC50 in experiment [1] is greater than 2000 nM. For the same compound, the IC50 in experiment [2] was greater than 30000 nM.
The matching figures for `Cc1cc(-n2c(C3CCOCC3)c(C[C@H]3C[C@@H](C(=O)O)C3)c3cc(O)ccc32)ccc1F` [Compound 8]: 500 to 2000 nM and greater than 30000 nM.
On to `Cc1cc(-n2c(C3CCOCC3)c([C@H]3C[C@@](C(=O)O)(C(F)(F)F)C3)c3cc(O)ccc32)ccc1F` [Compound 9], for which the EC50 in experiment [1] lay in the range of 500 to 2000 nM. Moreover, the IC50 in experiment [2] is greater than 5000 nM.
`Cc1cc(-n2c(C3CCOCC3)c(CCC(F)(F)C(=O)O)c3cc(O)ccc32)ccc1F` [Compound 10]: the EC50 in experiment [1] is greater than 2000 nM. The IC50 in experiment [2] was greater than 30000 nM.
The matching figures for `Cc1cc(-n2c(C3CCOCC3)c([C@H]3CC4(C[C@H](C(=O)O)C4)C3)c3cc(O)ccc32)ccc1F` (stereo partly shown) [Compound 11]: less than 500 nM and greater than 30000 nM.
For the compound `Cc1cc(-n2c(C3CCOCC3)c([C@H]3CC4(C[C@H](C(=O)O)C4)C3)c3cc(O)ccc32)ccc1F` (stereo partly shown) [Compound 12], the EC50 in experiment [1] was less than 500 nM. In addition, the IC50 in experiment [2] is greater than 5000 nM.
The matching figures for `Cc1cc(-n2c(C3CCOCC3)c(CC3(C(=O)O)CCC3)c3cc(O)ccc32)ccc1F` [Compound 13]: greater than 2000 nM and greater than 30000 nM.
With `Cc1cc(-n2c(C3CCOCC3)c(CCC(C)(C)C(=O)O)c3cc(O)ccc32)ccc1F` [Compound 14], the EC50 in experiment [1] lay in the range of 500 to 2000 nM. The concentration for half-maximal inhibition (IC50) in experiment [2] was greater than 30000 nM.
`CO[C@]1(C(=O)O)C[C@H](c2c(C3CCOCC3)n(-c3ccc(F)c(C)c3)c3ccc(O)cc32)C1` [Compound 15]: in experiment [1], the EC50 was greater than 2000 nM. In addition, in experiment [2], the IC50 was greater than 30000 nM.
For the compound `CO[C@]1(C(=O)O)C[C@@H](c2c(C3CCOCC3)n(-c3ccc(F)c(C)c3)c3ccc(O)cc32)C1` [Compound 16], the EC50 in experiment [1] was greater than 2000 nM. Further, the IC50 in experiment [2] was greater than 30000 nM.
On to `Cc1cc(-n2c(C3CCOCC3)c([C@H]3C[C@H](C(=O)O)C3)c3cc(O)ccc32)ccc1F` [Compound 20], for which the EC50 in experiment [1] was greater than 2000 nM. Also, the half-maximal inhibitory concentration (IC50) in experiment [2] was greater than 30000 nM.
Consider `Cc1cc(-n2c(C3CCOCC3)c([C@H]3C[C@@H](C(=O)O)C3)c3cc(O)ccc32)ccc1F` [Compound 21], for which the EC50 in experiment [1] is greater than 2000 nM. Further, in experiment [2], the IC50 was greater than 30000 nM.
On the same counts, the results for `Cc1cc(-n2c(C(C)C)c([C@H]3C[C@](C)(C(=O)O)C3)c3c(F)c(O)c(F)cc32)ccc1F` [Compound 22] are 500 to 2000 nM and 2000 to 5000 nM.
In the case of `Cc1cc(-n2c(C(C)C)c([C@H]3C[C@@](C)(C(=O)O)C3)c3c(F)c(O)c(F)cc32)ccc1F` [Compound 23], in experiment [1], the half-maximal effective concentration (EC50) lay in the range of 500 to 2000 nM. In addition, the IC50 in experiment [2] was greater than 30000 nM.
On to `O=C(O)[C@H]1CC[C@@H](c2c(C3CCOCC3)n(-c3ccc(F)c(Cl)c3)c3ccc(O)cc32)CC1` [Compound 24], for which the EC50 in experiment [1] was greater than 2000 nM. The IC50 in experiment [2] is greater than 30000 nM.
For `Cc1cc(-n2c(C3CCOCC3)c(CC3CC(C(=O)O)C3)c3cc(O)ccc32)ccc1F` (stereo not shown) [Compound 25], in experiment [1], the EC50 is 500 to 2000 nM. Also, the IC50 in experiment [2] is greater than 30000 nM.
For `Cc1cc(-n2c(C(C)C)c(CC(C)C(=O)O)c3cc(O)ccc32)ccc1F` (stereo not shown) [Compound 26], the EC50 in experiment [1] was greater than 2000 nM. Further, in experiment [2], the IC50 was greater than 30000 nM.
As to `C[C@]1(C(=O)O)C[C@H](c2c(C3CCOCC3)n(-c3ccc(F)c(Cl)c3)c3ccc(O)cc32)C1` [Compound 27], in experiment [1], the EC50 fell in the range of 500 to 2000 nM. Moreover, in experiment [2], the IC50 was greater than 5000 nM.
As to `C[C@]1(C(=O)O)C[C@@H](c2c(C3CCOCC3)n(-c3ccc(F)c(Cl)c3)c3ccc(O)cc32)C1` [Compound 28], the 50% effective concentration (EC50) in experiment [1] is greater than 2000 nM. For the same compound, the IC50 in experiment [2] is greater than 30000 nM.
On the same counts, the results for `CC(C)(CCc1c(C2CCOCC2)n(-c2ccc(F)c(Cl)c2)c2ccc(O)cc12)C(=O)O` [Compound 29] are 500 to 2000 nM and greater than 30000 nM.
On the same counts, the results for `CC(C)(CCc1c(C2CCOCC2)n(-c2ccc(F)cc2)c2ccc(O)cc12)C(=O)O` [Compound 30] are 500 to 2000 nM and greater than 30000 nM.
On the same counts, the results for `O=C(O)C1CC2(C1)CC(c1c(C3CCOCC3)n(-c3ccc(F)c(Cl)c3)c3ccc(O)cc13)C2` (stereo not shown) [Compound 31] are less than 500 nM and greater than 5000 nM.
Consider `O=C(O)[C@H]1CC2(C1)C[C@H](c1c(C3CCOCC3)n(-c3ccc(F)c(Cl)c3)c3ccc(O)cc31)C2` (stereo partly shown) [Compound 32], for which the EC50 in experiment [1] is less than 500 nM. In addition, the IC50 in experiment [2] was greater than 5000 nM.
In the case of `O=C(O)[C@H]1CC2(C1)C[C@H](c1c(C3CCOCC3)n(-c3ccc(F)c(Cl)c3)c3ccc(O)cc31)C2` (stereo partly shown) [Compound 33], the EC50 in experiment [1] was less than 500 nM. For the same compound, the IC50 in experiment [2] was greater than 5000 nM.
On the same counts, the results for `O=C(O)[C@H]1C[C@H](Cc2c(C3CCOCC3)n(-c3ccc(F)c(Cl)c3)c3ccc(O)cc23)C1` [Compound 34] are greater than 2000 nM and greater than 30000 nM.
`O=C(O)[C@H]1C[C@@H](Cc2c(C3CCOCC3)n(-c3ccc(F)cc3)c3ccc(O)cc23)C1` [Compound 35]: the EC50 in experiment [1] was greater than 2000 nM. Besides, in experiment [2], the IC50 was greater than 30000 nM.
Turning to `O=C(O)[C@H]1C[C@H](Cc2c(C3CCOCC3)n(-c3ccc(F)cc3)c3ccc(O)cc23)C1` [Compound 36], the EC50 in experiment [1] is greater than 2000 nM. The IC50 in experiment [2] was greater than 30000 nM.
